Results: ChEMBL document CHEMBL4673332, “Neuroprotective and Anti-inflammatory Ditetrahydrofuran-Containing Diarylheptanoids from Tacca chantrieri” (J Nat Prod, 2020)

Assays:
[1] = system: BV-2; assay: Antiinflammatory activity against LPS-induced mouse BV-2 cells assessed NO production at 1 uM preincubated for 2 hrs followed by LPS-stimulation and measured after 24 hrs by Greiss reagent based assay relative to control; format: functional; conditions: time 26 hrs
[2] = system: BV-2; assay: Cytotoxicity against mouse BV-2 cells assessed as reduction cell viability at 10 uM after 24 hrs by MTT assay; format: cell-based; conditions: bv-2, 24 h
[3] = system: BV-2; assay: Antiinflammatory activity against LPS-induced mouse BV-2 cells assessed NO production at 10 uM preincubated for 2 hrs followed by LPS-stimulation and measured after 24 hrs by Greiss reagent based assay relative to control; format: functional; conditions: time 26 hrs
[4] = system: SH-SY5Y; assay: Neuroprotective activity in human SH-SY5Y cells assessed as reduction in amyloid beta (25 to 35)-induced cytotoxicity by measuring cell viability at 1 uM after 24 hrs by MTT assay relative to control; format: functional
[5] = system: SH-SY5Y; assay: Neuroprotective activity in human SH-SY5Y cells assessed as reduction in amyloid beta (25 to 35)-induced cytotoxicity by measuring cell viability at 10 uM after 24 hrs by MTT assay relative to control; format: functional
[6] = system: SH-SY5Y; assay: Cytotoxicity against human SH-SY5Y cells assessed as reduction cell viability at 1 to 10 uM after 24 hrs by MTT assay; format: cell-based; conditions: dose 1-10 µM
[7] = Cytotoxicity against mouse BV-2 cells assessed as cell viability at 10 uM after 24 hrs by MTT assay relative to control; format: cell-based; conditions: read-out: Activity

SMILES | Activity [1] [%] | Activity [2] | Activity [3] [%] | Activity [4] [%] | Activity [5] [%] | Activity [6] | viability at 24 h, 10 µM [7] [%]
COc1cc(CC[C@@H](O)C[C@H](O)CCc2ccc(O)cc2)ccc1O | 99.4 | Non-Toxic | 85.7 |  |  |  | 
COc1cc(/C=C/C=C/C(=O)CCc2ccc(O)cc2)cc(OC)c1O | 96.8 | Non-Toxic | 77.4 | 66.1 | 81.3 | Non-Toxic | 
COc1cc([C@@H]2O[C@@H](CC(=O)CCc3ccc(O)cc3)[C@@H]3[C@H]2[C@H](CC(=O)CCc2ccc(O)cc2)O[C@H]3c2ccc(O)cc2)ccc1O | 99.6 | Non-Toxic | 86.8 | 69.6 | 91.9 | Non-Toxic | 
O=C(CCc1ccc(O)cc1)C[C@@H]1O[C@@H](c2ccc(O)cc2)[C@H]2[C@@H]1[C@H](c1ccc(O)cc1)O[C@H]2CC(=O)CCc1ccc(O)cc1 | 100.9 |  | 87.8 | 70.7 | 70.9 |  | < 70
COc1cc([C@@H]2O[C@@H](CC(=O)CCc3ccc(O)cc3)[C@@H]3[C@H]2[C@H](CC(=O)CCc2ccc(O)cc2)O[C@H]3c2ccc(O)c(OC)c2)ccc1O | 101.4 |  | 85 | 69 | 76.3 | Non-Toxic | < 70
COc1cc(CC[C@@H](O)C[C@H](O)CCc2ccc(O)c(OC)c2)ccc1O | 101.2 | Non-Toxic | 84.3 |  |  |  | 
Oc1ccc2cc1Oc1ccc(cc1)CC[C@H](O)C[C@@H](O)CC2 (relative stereo) | 98.8 | Non-Toxic | 84.6 |  |  |  | 
Oc1ccc(CC[C@@H](O)C[C@H](O)CCc2ccc(O)cc2)cc1 [(+)-HANNOKINOL] | 101.9 | Non-Toxic | 94.8 |  |  |  | 
O=C(O[C@@H]1Cc2c(O)cc(O)cc2O[C@@H]1c1cc(O)c(O)c(O)c1)c1cc(O)c(O)c(O)c1 [EPIGALOCATECHIN GALLATE] |  |  |  |  | 80.8 |  | 
Oc1ccc(/C=C/c2cc(O)cc(O)c2)cc1 [RESVERATROL] | 67.5 |  |  |  |  |  | 
